Test results published in PMC2603307 (Chemistry & biology, 2008).

Molecular target: T1, E. coli GCH I (FolE, B2153) (Escherichia coli, UniProt P0A6T5)
T1 sequence (P0A6T5 2-222): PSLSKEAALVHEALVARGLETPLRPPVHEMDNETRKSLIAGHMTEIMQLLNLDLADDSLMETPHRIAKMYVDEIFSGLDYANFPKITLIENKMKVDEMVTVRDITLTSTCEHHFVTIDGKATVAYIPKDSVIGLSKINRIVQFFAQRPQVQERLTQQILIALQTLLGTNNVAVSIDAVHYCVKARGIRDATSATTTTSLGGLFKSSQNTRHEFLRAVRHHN
Experiment: LC-MS of product
Type: biochemical
Settings: 20 mM Tris-SO4 pH 8.0, 2 mM dithiothreitol, 0.1 M KCl, 100 uM GTP, 120 min, ambient temperature

Nc1nc2c(ncn2[C@@H]2O[C@H](COP(=O)(O)OP(=O)(O)OP(=O)(O)O)[C@@H](O)[C@H]2O)c(=O)[nH]1 [GTP]
LC-MS of product: product produced by ToyD with that produced with E. coli GCH I (FolE, B2153)
